Reference: the supplement of paper PMC10657565
± gives the uncertainty stated by the source.

What was measured:
Experiment in all cases: relative cell viability vs DMSO control (% of DMSO control); higher = less growth inhibition (higher viability)
Conditions in all cases: treatment time: 72 h
BT-474 = system: BT-474
Experimental: (§1)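 Breast cancer cell lines (BT-474, HCC1806, SUM-159, SKBR-3) were seeded in triplicate in 96-well plates and treated 24 h after seeding with kinase inhibitors at 8 doses (3 nM to 30 uM). After 72 h, viability was read by CellTiter-Glo luminescence. Values were averaged over replicates and normalised to DMSO-only (0.1%) controls on each plate to give relative viability (% of DMSO).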

SUM159 = system: SUM159
Experimental: as §1

HCC1806 = system: HCC1806
Experimental: as §1

SKBR3 = system: SKBR3
Experimental: as §1

Row | Compound | relative cell viability (BT-474; 0.003 µM) | relative cell viability (BT-474; 0.01 µM) | relative cell viability (BT-474; 0.03 µM) | relative cell viability (BT-474; 0.1 µM) | relative cell viability (BT-474; 0.3 µM) | relative cell viability (BT-474; 1 µM) | relative cell viability (BT-474; 3 µM) | relative cell viability (BT-474; 30 µM) | relative cell viability (SUM159; 0.003 µM) | relative cell viability (SUM159; 0.01 µM) | relative cell viability (SUM159; 0.03 µM) | relative cell viability (SUM159; 0.1 µM) | relative cell viability (SUM159; 0.3 µM) | relative cell viability (SUM159; 1 µM) | relative cell viability (SUM159; 3 µM) | relative cell viability (SUM159; 30 µM) | relative cell viability (HCC1806; 0.003 µM) | relative cell viability (HCC1806; 0.01 µM) | relative cell viability (HCC1806; 0.03 µM) | relative cell viability (HCC1806; 0.1 µM) | relative cell viability (HCC1806; 0.3 µM) | relative cell viability (HCC1806; 1 µM) | relative cell viability (HCC1806; 3 µM) | relative cell viability (HCC1806; 30 µM) | relative cell viability (SKBR3; 0.003 µM) | relative cell viability (SKBR3; 0.01 µM) | relative cell viability (SKBR3; 0.03 µM) | relative cell viability (SKBR3; 0.1 µM) | relative cell viability (SKBR3; 0.3 µM) | relative cell viability (SKBR3; 1 µM) | relative cell viability (SKBR3; 3 µM) | relative cell viability (SKBR3; 30 µM)
1 | COCCN1CCN(Cc2ccc(-c3n[nH]c4c3C(=O)c3c(NC(=O)NN5CCOCC5)cccc3-4)cc2)CC1 | 97.7 ± 4.1 | 86 ± 3.1 | 66.7 ± 7 | 64.5 ± 6.1 | 69.8 ± 8.4 | 70.8 ± 15 | 75.2 ± 7.9 | 11.2 ± 0.36 | 97.1 ± 6.1 | 60.4 ± 30 | 14.3 ± 16 | 7.11 ± 1 | 8.54 ± 0.38 | 9.97 ± 0.5 | 7.7 ± 0.38 | 0.538 ± 0.063 | 96.5 ± 1.7 | 83.3 ± 2.7 | 42.8 ± 16 | 11.7 ± 1.4 | 9.5 ± 1.1 | 9.2 ± 0.52 | 9.82 ± 0.46 | 2.82 ± 1.3 | 84.2 ± 3.5 | 71 ± 7.2 | 50 ± 7 | 18.1 ± 8.7 | 8.06 ± 0.7 | 7.43 ± 0.26 | 5.73 ± 0.075 | 0.827 ± 0.17
2 | Cc1cc(Nc2ncc(Cl)c(Nc3ccccc3S(=O)(=O)C(C)C)n2)c(OC(C)C)cc1C1CCNCC1 [Ceritinib] | – | – | – | – | – | – | – | – | 103 ± 1.4 | 104 ± 2.6 | 103 ± 2.6 | 97.1 ± 3.6 | 90.8 ± 8.2 | 53.9 ± 11 | 1.44 ± 0.14 | 0.279 ± 0.078 | – | – | – | – | – | – | – | – | 104 ± 3 | 105 ± 2 | 102 ± 4.2 | 99.8 ± 3.8 | 96.4 ± 2.8 | 89.1 ± 5.3 | 10.7 ± 4.1 | 0.491 ± 0.1
3 | COc1cc2ncnc(Nc3ccc(O)cc3)c2cc1OC [JANEX-1] | – | – | – | – | – | – | – | – | 101 ± 6.1 | 103 ± 1.8 | 104 ± 2.1 | 102 ± 3.1 | 97.9 ± 3.6 | 96.2 ± 4.1 | 92.5 ± 1.9 | 59.2 ± 2.8 | – | – | – | – | – | – | – | – | 106 ± 3.1 | 104.9 ± 0.48 | 107 ± 1.8 | 105 ± 3.3 | 104 ± 2.6 | 101 ± 5.9 | 100 ± 1.5 | 61.4 ± 2.9
4 | c1cc(OCCN2CCCCC2)cc(-c2n[nH]c3ccc(-c4nnc[nH]4)cc23)c1 [CC-401] | – | – | – | – | – | – | – | – | 102 ± 3.9 | 102 ± 5 | 101 ± 2.8 | 99.9 ± 2.5 | 98.4 ± 4.2 | 103 ± 2.2 | 105 ± 3.4 | 52.5 ± 2.7 | – | – | – | – | – | – | – | – | 104 ± 2.5 | 104 ± 5.8 | 105 ± 2.5 | 100 ± 3.7 | 99.8 ± 2.2 | 94.5 ± 4.1 | 91 ± 2.1 | 68.2 ± 3.2
5 | COCc1c(-c2ccc(NC(=O)Nc3cc(C(F)(F)F)ccc3F)c(F)c2)c2c(N)ncnn2c1CN1CCOCC1 [ACTB-1003] | – | – | – | – | – | – | – | – | 101.4 ± 0.75 | 99.02 ± 0.34 | 96.9 ± 4.4 | 98.6 ± 1.8 | 91.7 ± 2.9 | 73.4 ± 5.4 | 39.5 ± 3.3 | 0.887 ± 0.066 | – | – | – | – | – | – | – | – | 105 ± 0.92 | 104 ± 2.9 | 107 ± 3.9 | 106 ± 2.7 | 107 ± 3.3 | 98.8 ± 2 | 78.2 ± 4 | 3.14 ± 0.2
6 | COC(=O)[C@@]1(O)C[C@H]2O[C@]1(C)n1c3ccccc3c3c4c(c5c6ccccc6n2c5c31)C(=O)NC4 [K-252a] | 113 ± 7.6 | 106 ± 6.3 | 99.6 ± 7.7 | 91.6 ± 6.8 | 81.3 ± 4.5 | 58.9 ± 7.6 | 21.3 ± 4.6 | 1.44 ± 0.18 | 68.7 ± 6.9 | 63.8 ± 1.2 | 72.2 ± 3 | 34.7 ± 9.7 | 12.9 ± 2.6 | 6.47 ± 1.4 | 4.82 ± 0.85 | 2.12 ± 0.57 | 91.4 ± 5.5 | 81.8 ± 5.3 | 75.8 ± 6.2 | 62.3 ± 13 | 26.1 ± 8.3 | 13 ± 1.5 | 5.96 ± 2.1 | 0.762 ± 0.15 | 92.4 ± 4.2 | 90.4 ± 2 | 87.8 ± 4.2 | 81.8 ± 3.8 | 69.2 ± 4.8 | 54.3 ± 1.9 | 40 ± 2.8 | 1.88 ± 0.54
7 | Cc1c(F)cc(C(=O)NC2CC2)cc1-c1ccc(C(=O)NCC(C)(C)C)cn1 [Losmapimod] | – | – | – | – | – | – | – | – | 98.8 ± 3 | 97.2 ± 1.3 | 98 ± 7 | 99 ± 5.2 | 92.7 ± 2.7 | 91.5 ± 5 | 87.5 ± 2.5 | 68.5 ± 3.9 | – | – | – | – | – | – | – | – | 105 ± 4.8 | 102 ± 7 | 101 ± 5.5 | 95.9 ± 5.4 | 95.9 ± 5.7 | 93 ± 4.7 | 93.4 ± 2.4 | 73.6 ± 2.7
8 | CC(C)c1cc(CNc2nc(Nc3cc(C4CC4)[nH]n3)cc(N3CCN(C)CC3)n2)on1 [XL-228] | – | – | – | – | – | – | – | – | 74.7 ± 5.2 | 61.4 ± 1.7 | 54.32 ± 0.48 | 36.5 ± 1.4 | 26.8 ± 1.6 | 11 ± 0.61 | 6.45 ± 0.28 | 10.8 ± 0.58 | – | – | – | – | – | – | – | – | 103 ± 1.4 | 101 ± 2.3 | 101 ± 7.3 | 100 ± 6.3 | 115 ± 6.3 | 117 ± 3.9 | 52.2 ± 6.2 | 6.72 ± 0.86
9 | Cn1c(=O)c(F)c(Nc2ccc(I)cc2F)c2c(=O)n(C[C@@H](O)CO)cnc21 [TAK-733] | 104 ± 16 | 103 ± 7.3 | 104 ± 11 | 94.8 ± 12 | 99.5 ± 11 | 93 ± 14 | 92 ± 9.1 | 36.3 ± 9.5 | – | – | – | – | – | – | – | – | 77.8 ± 5.2 | 75.1 ± 5.4 | 73.8 ± 3.5 | 72.7 ± 4.1 | 71.6 ± 2.5 | 71.6 ± 3.9 | 70.3 ± 3.3 | 39.2 ± 3.9 | – | – | – | – | – | – | – | –
